Test results from article PMC12926254, “Novel pyrazole carboxylate derivatives as lonazolac bioisosteres with selective COX-2 inhibition: design, synthesis and anti-inflammatory activity” (Molecular Diversity, 2025).
Like-named read-outs stand apart in the source and are kept apart here. Marks after values point to notes of the source that are not given here. One block for each molecule: values may come before it.

Key:
COX-2 [1] = target: T1, COX-2 (Homo sapiens, UniProt P35354); test: In vitro COX-2 inhibition (COX-2 Inhibitor Screening Kit-K547, Biovision); type: biochemical; details: for COX-2 S.I.: COX-1 IC50/COX-2 IC50; for IC50: mean of six values ± standard deviation
T1 construct: purchased Biovision K547
T1 sequence (P35354 18-604): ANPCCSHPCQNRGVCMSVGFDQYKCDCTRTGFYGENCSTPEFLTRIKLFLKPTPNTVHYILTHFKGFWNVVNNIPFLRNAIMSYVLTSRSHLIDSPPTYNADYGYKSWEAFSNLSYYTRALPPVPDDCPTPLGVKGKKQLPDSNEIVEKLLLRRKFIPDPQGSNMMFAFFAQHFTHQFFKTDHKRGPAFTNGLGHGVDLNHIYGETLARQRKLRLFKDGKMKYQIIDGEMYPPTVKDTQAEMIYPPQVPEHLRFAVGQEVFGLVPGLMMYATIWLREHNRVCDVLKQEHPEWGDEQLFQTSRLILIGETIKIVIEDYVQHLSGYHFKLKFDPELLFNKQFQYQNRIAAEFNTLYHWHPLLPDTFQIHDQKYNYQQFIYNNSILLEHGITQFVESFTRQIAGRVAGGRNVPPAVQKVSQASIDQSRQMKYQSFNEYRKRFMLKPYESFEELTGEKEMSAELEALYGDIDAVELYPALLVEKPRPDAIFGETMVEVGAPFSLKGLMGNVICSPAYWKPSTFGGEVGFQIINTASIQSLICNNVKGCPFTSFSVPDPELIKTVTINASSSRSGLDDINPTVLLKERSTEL
Method: (§1) The IC50 value of the tested compounds was determined.
COX-2 inhibitor Screening Protocol: Dissolve the tested compounds in DMSO. Use COX Assay Buffer to dilute the relevant test concentration by 10X before using. Place 10 µl of diluted test inhibitor or Assay Buffer in the specified wells instead of the sample screen (S) or enzyme control (EC; no inhibitor). […] Before using, combine 2 µl of COX Cofactor with 398 µl of COX Assay Buffer to dilute COX Cofactor 200 times. Blend thoroughly. Just before using, mix 5 µl of the provided arachidonic acid with 5 µl of NaOH to make the arachidonic acid solution. Combine quickly using a vortex. To dilute the arachidonic acid/NaOH solution 10 times, add 90 µl of water. There should be 80 µl of reaction mix in each well. Using a multi-channel pipette, add 10 µl of diluted arachidonic acid/NaOH solution into each well to initiate the reactions concurrently.

COX-1 = target: T2, COX-1 (Ovis aries, UniProt P05979); test: In vitro COX-1 inhibition (COX-1 Inhibitor Screening Kit-K548, Biovision); type: biochemical; details: mean of six values ± standard deviation
T2 construct: purchased Biovision K548
T2 sequence (P05979 25-600): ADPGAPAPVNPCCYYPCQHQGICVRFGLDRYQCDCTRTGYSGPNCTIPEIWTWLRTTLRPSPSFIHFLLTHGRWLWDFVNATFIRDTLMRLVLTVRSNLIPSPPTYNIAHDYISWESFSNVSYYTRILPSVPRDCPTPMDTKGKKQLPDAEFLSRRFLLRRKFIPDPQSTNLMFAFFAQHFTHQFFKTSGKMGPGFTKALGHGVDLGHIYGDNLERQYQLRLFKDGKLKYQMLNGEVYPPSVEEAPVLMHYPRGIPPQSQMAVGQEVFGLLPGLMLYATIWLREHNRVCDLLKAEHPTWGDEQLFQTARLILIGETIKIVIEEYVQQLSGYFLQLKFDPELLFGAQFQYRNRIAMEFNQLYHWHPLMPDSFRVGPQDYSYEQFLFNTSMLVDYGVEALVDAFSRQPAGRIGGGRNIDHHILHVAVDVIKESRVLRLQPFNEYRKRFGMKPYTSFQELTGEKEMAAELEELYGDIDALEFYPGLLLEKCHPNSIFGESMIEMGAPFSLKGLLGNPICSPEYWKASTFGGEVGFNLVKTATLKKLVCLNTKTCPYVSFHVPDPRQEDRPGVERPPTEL
Method: as §1
COX-1 inhibitor Screening Protocol: Dissolve the tested compounds in DMSO. Use COX assay buffer to dilute the relevant test concentration by 10X before using. Place 10 µl of diluted test inhibitor or assay buffer in the specified wells instead of the sample screen (S) or enzyme control (EC; no inhibitor). To one of the wells, add 2 µl of SC560 and 8 µl of COX Assay Buffer as an inhibitor control (IC). Before using, combine 2 µl of COX Cofactor with 398 µl of COX Assay Buffer to dilute COX cofactor 200 times. Blend thoroughly. Just before using, mix 5 µl of the provided arachidonic acid with 5 µl of NaOH to make the arachidonic acid solution. Combine quickly using a vortex. To dilute the arachidonic acid/NaOH solution 10 times, add 90 µl of water. There should be 80 µl of reaction mix in each well. Using a multi-channel pipette, add 10 µl of diluted arachidonic acid/NaOH solution to each well to initiate all the reactions at once.

PGE2 [2] = test system: PGE2; design: method as in PMID 36166898; details: LPS-stimulated RAW cells; cited from earlier work
[3] = test system: carrageenan-induced rat paw edema; test: Carrageenan-induced rat paw edema assay; type: in vivo; details: 25 mg/kg
MTS cytotoxicity assay = type: cell-based; details: mouse, RAW 264.7 macrophages (heading: LPS-induced), read-out: Cytotoxicity IC50 (LPS-induced RAW 264.7 cells)
Method: Using Dulbecco’s Modified Eagle Medium (DMEM, Biowest L0060) supplemented with 10% foetal bovine serum (FBS) (Biowest, S1810) and 1% anti-biotic and anti-mycotic (Biowest, L0010-100), the RAW264.7 macrophage cell line (ATCC ® TIB-71TM) was cultivated. The cells were then incubated at 37 °C with 5% CO2 until they were confluent, which should be between 70 and 80%. After two to three days, the growth media was regularly changed. Trypsin–EDTA was then used to wash and collect the cells (Biowest, L0931-500).
The MTS (3-(4,5-dimethylthiazol-2-yl)-5-(3-carboxymethoxy-phenyl)-2-(4-sulfophenyl)-2H-tetrazolium) test (Promega, ab197010) was used to determine cell viability. In short, a 96-well plate was seeded with 5 × 10^3 cells per well, and the cells were then incubated for 24 h at 37 °C and 5% CO2. The cells were then re-incubated for 24 h at 37 °C and 5% CO2 after the medium was discarded and replaced with 180 µl of fresh growth media and 20 µl of sample (1000 ug, 250 ug, 63 ug, 16 ug, and 4 ug µg/mL). 20 µl of MTS was then added to each well, and the mixture was incubated for three hours at 37 °C with 5% CO2. […] Control cells were those that received no treatment.

PGE2 [4] = test: PGE2 production in LPS-activated RAW 264.7 macrophages (ELISA); details: Mus musculus, RAW264.7, read-out: PGE2 IC50
gastric mucosa = test: Ulcerogenic liability (ulcer index); type: in vivo; details: 50 mg/kg orally, three successive days, rats
Method: […]. […] Rats were divided into 7 groups and fasted for 18 h before drug administration. The control group received the vehicle (2.5% Tween 80). […] After 2 h, animals were fed. Rats were given the required dose orally for three successive days. After 2 h of the last dose, rats were sacrificed; the stomach of each rat was removed then opened along the greater curvature and rinsed with saline. In order to examine the stomach, it was stretched by pins on a corkboard. The gastric mucosa was carefully inspected for the occurrence of ulcers with the aid of an illuminated magnifying lens (l0x), then ulcer index was calculated according to the method described by Cho and Ogle. Lesions were counted and measured along the greater diameter using transparent ruler. Every five hemorrhagic spots were considered equivalent to 1 mm of ulcer. The ulcer index (mm) was calculated from the sum of the total length of ulcers and hemorrhagic spots in each stomach.

[5] = test system: carrageenan-induced rat paw edema; test: Carrageenan-induced rat paw edema assay; type: in vivo; details: for Paw edema thickness ± SEM / Paw edema % inhibition: rat
Method: As previously described, paw thickness was evaluated at 1, 3, and 5 h following carrageenan injection at a dose of 50 mg/kg.

TNF-α = TNF-α production in LPS-activated RAW 264.7 macrophages (ELISA); details: Mus musculus, RAW264.7, read-out: TNF-α IC50
iNOS = test: Inducible nitric oxide synthase (iNOS) inhibition in LPS-induced RAW 264.7 cells (ELISA); type: cell-based; details: Mus musculus, RAW264.7
From the text: NO is produced from L-arginine by iNOS and is utilized in a variety of cell signaling processes. An inducible member of the NOS family, iNOS is increased during pro-inflammatory cytokine activity as a host-defense mechanism. A commercially available quantitative ELISA kit (ab253219 Mouse iNOS Simple Step ELISA® Kit) will be used to evaluate the iNOS enzyme activity of the substances in the cell lysate in accordance with the manufacturer’s instructions.

COX-2 [6] = target: T1, COX-2; details: cited from earlier work
[7] = 3 h after carrageenan, 50 mg/kg
[8] = 5 h after carrageenan, 50 mg/kg

SMILES: O=C(O)COc1ccc(C(=O)/C=C/c2cn(-c3ccccc3)nc2-c2ccc([N+](=O)[O-])cc2)cc1 [Compound 10]
IC50 (PGE2 [2]): 11 µM

SMILES: Cc1ccc(-c2cc(C(F)(F)F)nn2-c2ccc(S(N)(=O)=O)cc2)cc1 [Celecoxib, celecoxib, reference compound]
% inhibition (edema) [3]: 34.97%
IC50 at 24 h (MTS cytotoxicity assay): 149 ± 5.3 µM
IC50 (PGE2 [4]): 0.38 ± 0.027 µM
Average no of ulcer (gastric mucosa): 0.48 ± 0.015***^b
Average severity (gastric mucosa): 0.66 ± 0.026***^b
% inhibition (edema) ([5]; 50 mg/kg): 97.48%
Paw edema thickness ± SEM ([5]; 1 h after carrageenan, 50 mg/kg): 3.43 ± 0.004 mm
Paw edema % inhibition [5, 7]: 38.3%
Paw edema thickness ± SEM [5, 7]: 3.1 ± 0.011 mm
Paw edema % inhibition [5, 8]: 56.3%
Paw edema thickness ± SEM [5, 8]: 2.52 ± 0.0095 mm
ED50 ([5]; Rattus norvegicus, dose producing 50% edema inhibition): 40.4 mg/kg
IC50 (TNF-α): 0.87 ± 0.03 µM
IC50 (iNOS): 0.48 ± 0.04 µM

SMILES: CCOC(=O)COc1ccc(C2=NN(c3ccc(S(C)(=O)=O)cc3)C(c3ccccc3Br)C2)cc1 (centres unmarked) [Compound 15 g, Ethyl 2-(4-(5-(2-bromophenyl)-1-(4-(methylsulfonyl)phenyl)-4,5-dihydro-1H-pyrazol-3-yl)phenoxy)acetate]
COX-2 S.I. (COX-2 [1]): 15.07
IC50 (COX-2 [1]): 0.575 ± 0.019 µM
IC50 (COX-1): 8.59 ± 0.33 µM

SMILES: N=C1/C(=N\Nc2ccc(Cl)cc2)C(N)=NN1c1ccc(S(N)(=O)=O)cc1 [Compound 8b]
COX-2 selectivity index (S.I.) (COX-2 [6]): 10.55

SMILES: Cc1ccc(N/N=C2\C(=N)N(c3ccc(S(N)(=O)=O)cc3)N=C2N)cc1 [Compound 8a]
COX-2 selectivity index (S.I.) (COX-2 [6]): 8.41

Now from value to molecule:

COX-2 S.I. (COX-2 [1]): 4.30
IC50 (COX-2 [1]): 1.59 ± 0.052 µM
IC50 (COX-1): 6.83 ± 0.25 µM
SMILES: CCOC(=O)COc1ccc(C2=NN(c3ccc(S(C)(=O)=O)cc3)C(c3ccc([N+](=O)[O-])cc3)C2)cc1 (centres unmarked) [Compound 15f, Ethyl 2-(4-(1-(4-(methylsulfonyl)phenyl)-5-(4-nitrophenyl)-4,5-dihydro-1H-pyrazol-3-yl)phenoxy)acetate]

COX-2 S.I. (COX-2 [1]): 5.89
IC50 (COX-2 [1]): 1.94 ± 0.064 µM
IC50 (COX-1): 11.4 ± 0.42 µM
SMILES: CCOC(=O)COc1ccc(C2=NN(c3ccc(S(C)(=O)=O)cc3)C(c3ccc(C)cc3)C2)cc1 (centres unmarked) [Compound 15b, Ethyl 2-(4-(1-(4-(methylsulfonyl)phenyl)-5-(p-tolyl)-4,5-dihydro-1H-pyrazol-3-yl)phenoxy)acetate]

COX-2 S.I. (COX-2 [1]): 1.90
IC50 (COX-2 [1]): 3.9 ± 0.129 µM
IC50 (COX-1): 7.42 ± 0.45 µM
SMILES: CCOC(=O)COc1ccc(C2=NN(c3ccc(S(C)(=O)=O)cc3)C(c3ccccc3)C2)cc1 (centres unmarked) [Compound 15a, Ethyl 2-(4-(1-(4-(methylsulfonyl)phenyl)-5-phenyl-4,5-dihydro-1H-pyrazol-3-yl)phenoxy) acetate]

COX-2 S.I. (COX-2 [1]): 4.05
IC50 (COX-2 [1]): 0.742 ± 0.025 µM
IC50 (COX-1): 3.01 ± 0.12 µM
SMILES: CCOC(=O)COc1ccc(C2=NN(c3ccc(S(C)(=O)=O)cc3)C(c3ccc(Cl)cc3)C2)cc1 (centres unmarked) [Compound 15e, Ethyl 2-(4-(5-(4-chlorophenyl)-1-(4-(methylsulfonyl)phenyl)-4,5-dihydro-1H-pyrazol-3-yl)phenoxy)acetate]
